Target: mPTPB (Mycobacterium tuberculosis, UniProt I6WXK4)
Conditions: read-out: IC50 for mPTPB; pH 7

Sequence of mPTPB (I6WXK4 whole entry, looked up): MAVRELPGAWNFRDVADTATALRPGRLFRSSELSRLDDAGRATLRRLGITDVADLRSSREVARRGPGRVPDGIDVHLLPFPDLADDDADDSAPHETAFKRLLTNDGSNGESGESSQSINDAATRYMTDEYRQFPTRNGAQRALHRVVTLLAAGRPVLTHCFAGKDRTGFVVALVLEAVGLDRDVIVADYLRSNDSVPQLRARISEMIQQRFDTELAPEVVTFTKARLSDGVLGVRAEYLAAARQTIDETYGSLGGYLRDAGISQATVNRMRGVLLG

In the case of `C#CCOc1c(C(=O)O)cc2cc(Cl)cc(OCC#C)c2c1Cl` [Compound L5], the IC50 is reported as 75 µM.

From article PMC3117672 (ChemMedChem, 2010)
